Assay results from US10611740B2, “Aryl dihydro-2H-benzo[b][1,4]oxazine sulfonamide and related compounds for use as agonists of RORγ and the treatment of disease” (Lycera Corporation, priority 2015, dated 2020).

Tests used:
Gal4-RORγ-LBD = molecular target: T1, Gal4-RORγ-LBD (Homo sapiens, UniProt P51449); experiment: Gal4-RORγ Luciferase Reporter Assay in HEK-293T Cells; type: cell-based; details: HEK-293 cells
T1 construct: expressed in transfected cells; host or cells: HEK-293 cells (pcDNA3.1neo plasmid)
T1 sequence (P51449 269-508 limits assumed): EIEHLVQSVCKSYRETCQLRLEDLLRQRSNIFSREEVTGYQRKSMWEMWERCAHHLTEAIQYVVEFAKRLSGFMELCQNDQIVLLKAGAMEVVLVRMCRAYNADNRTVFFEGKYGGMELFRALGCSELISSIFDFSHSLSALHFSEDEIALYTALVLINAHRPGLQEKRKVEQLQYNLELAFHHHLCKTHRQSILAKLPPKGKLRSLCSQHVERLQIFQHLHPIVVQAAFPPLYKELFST
Procedure, shortened: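 HEK-293 cells were transiently co-transfected with Gal4-RORγ-LBD and pGL4.31 Gal4-luciferase, with ursolic acid added at 2 μM final. Compounds were incubated overnight at 37° C. in 0.2% DMSO and luminescence read with One-Glo. Max Response is the upper plateau of a 4-parameter logistic fit, with signal lacking ursolic acid or compound set to 100.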

RORγ-LBD = molecular target: T2, RORγ-LBD (Homo sapiens, UniProt P51449); experiment: RORγ-Ligand Binding Domain (LBD) TR-FRET Assay; type: biochemical;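 on TR-FRET Assay Max Response: 665/615 nm ratio relative to signal without ursolic acid or compound set at 100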
T2 construct: made in house; host or cells: SF9 cells (baculovirus)
T2 sequence (P51449 269-508 limits assumed): T1 sequence (P51449 269-508 limits assumed)
Procedure, shortened: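 His-tagged RORγ-LBD from SF9 baculovirus lysate, ~3 nM final, in 50 mM Tris pH 7.0, 50 mM KCl, 1 mM EDTA, 0.1 mM DTT, 0.01% BSA. Biotinylated SRC1 LXXLL peptide at 200 nM final with 2 μM ursolic acid; TR-FRET read-out, 1% DMSO final.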

[1] = luciferase reporter, with 2 μM ursolic acid

Row | Structure (SMILES) | EC50 (Gal4-RORγ-LBD; 2 μM ursolic acid) [nM] | EC50 (RORγ-LBD) [nM] | EC50 (Gal4-RORγ-LBD; [1]) [nM] | Gal4-RORγ Assay Max Response (Gal4-RORγ-LBD; 2 μM ursolic acid) | TR-FRET Assay Max Response (RORγ-LBD) | Gal4-RORγ Assay Max Response (Gal4-RORγ-LBD; [1])
1 | CC[C@H](C[C@H]1CN(S(=O)(=O)c2cccc(C(F)(F)F)c2)c2cc(-c3cc(F)cc(F)c3Cl)ccc2O1)C(=O)O [Compound 46F, (R)-2-(((S)-6-(2-chloro-3,5-difluorophenyl)-4-((3-(trifluoro-methyl)phenyl)sulfonyl)-3,4-dihydro-2H-benzo[b][1,4]oxazin-2-yl)methyl)butanoic acid] | 500 to 5000 | < 500 | – | * (The symbol “*” indicates a value in the range of 25 to 90) | *** (The symbol “***” indicates a value in the range of greater than 150 to 200) | –
2 | O=C(O)C1CCN(C(=O)CC[C@H]2CN(S(=O)(=O)c3cccc(C(F)(F)F)c3)c3cc(-c4cccc(Cl)c4)cc(F)c3O2)CC1 [Compound 9, (S)-1-(3-(6-(3-chlorophenyl)-8-fluoro-4-((3-(trifluoromethyl)phenyl)sulfonyl)-3,4-dihydro-2H-benzo[b][1,4]oxazin-2-yl)propanoyl)piperidine-4-carboxylic acid] | – | < 500 | < 500 | – | **** (The symbol “****” indicates a value greater than 200) | ** (The symbol “**” indicates a value in the range of greater than 90 to 150)
3 | Cc1c(Cl)cccc1-c1ccc2c(c1)N(S(=O)(=O)c1cccc(C(F)(F)F)c1)C[C@H](CC(C)(C)C(=O)O)O2 [Compound 32AZ, (S)-3-(6-(3-chloro-2-methyl-phenyl)-4-((3-(trifluoromethyl)-phenyl)sulfonyl)-3,4-dihydro-2H-benzo[b][1,4]oxazin-2-yl)-2,2-dimethylpropanoic acid] | < 500 | < 500 | – | ** (The symbol “**” indicates a value in the range of greater than 90 to 150) | ** (The symbol “**” indicates a value in the range of greater than 90 to 150) | –
4 | C[C@@H](CC(=O)O)[C@H]1CN(S(=O)(=O)c2cccc(C(F)(F)F)c2)c2cc(-c3cc(F)cc(F)c3Cl)ccc2O1 [Compound 80C, (S)-3-((S)-6-(2-chloro-3,5-difluorophenyl)-4-((3-(trifluoromethyl)phenyl)sulfonyl)-3,4-dihydro-2H-benzo[b][1,4]-oxazin-2-yl)butanoic acid] | < 500 | < 500 | – | ** (The symbol “**” indicates a value in the range of greater than 90 to 150) | *** (The symbol “***” indicates a value in the range of greater than 150 to 200) | –
5 | CC(C)(O)C(=O)NC[C@H]1CN(S(=O)(=O)c2cncc(C(F)(F)F)c2)c2cc(-c3cc(F)ccc3F)ccc2O1 [Compound 30U, (S)-N-((6-(2,5-difluorophenyl)-4-((5-(trifluoromethyl)pyridin-3-yl)sulfonyl)-3,4-dihydro-2H-benzo[b][1,4]oxazin-2-yl)methyl)-2-hydroxy-2-methylpropanamide] | – | < 500 | < 500 | – | *** (The symbol “***” indicates a value in the range of greater than 150 to 200) | ** (The symbol “**” indicates a value in the range of greater than 90 to 150)
6 | COc1cccc(-c2ccc3c(c2)N(S(=O)(=O)c2ccc(F)c(OC)c2)C[C@H](CNC(=O)C(C)(C)O)O3)c1 [Compound 30S, (S)-N-((4-((4-fluoro-3-methoxyphenyl)sulfonyl)-6-(3-methoxyphenyl)-3,4-dihydro-2H-benzo[b][1,4]oxazin-2-yl)methyl)-2-hydroxy-2-methylpropanamide] | – | < 500 | < 500 | – | **** (The symbol “****” indicates a value greater than 200) | * (The symbol “*” indicates a value in the range of 25 to 90)
7 | O=C(O)CC[C@H]1CN(S(=O)(=O)c2cccc(C(F)(F)F)c2)c2cc(-c3ccccc3O)ccc2O1 [Compound 2AW, (S)-3-(6-(2-hydroxyphenyl)-4-((3-(trifluoromethyl)phenyl)-sulfonyl)-3,4-dihydro-2H-benzo[b][1,4]oxazin-2-yl)propanoic acid] | – | < 500 | 500 to 5000 | – | **** (The symbol “****” indicates a value greater than 200) | ** (The symbol “**” indicates a value in the range of greater than 90 to 150)
8 | O=C(O)CC[C@H]1CN(S(=O)(=O)c2cccc(Cl)c2)c2cc(-c3cccc(Cl)c3)ccc2O1 [Compound 6B, (S)-3-(6-(3-chlorophenyl)-4-((3-chlorophenyl)sulfonyl)-3,4-dihydro-2H-benzo[b][1,4]oxazin-2-yl)propanoic acid] | – | < 500 | 500 to 5000 | – | **** (The symbol “****” indicates a value greater than 200) | ** (The symbol “**” indicates a value in the range of greater than 90 to 150)
9 | O=C(O)[C@H]1C[C@H](C[C@H]2CN(S(=O)(=O)c3cccc(C(F)(F)F)c3)c3cc(-c4cc(F)cc(F)c4Cl)ccc3O2)C1 [Compound 60B, (1S,3r)-3-(((S)-6-(2-chloro-3,5-difluorophenyl)-4-((3-(trifluoro-methyl)phenyl)sulfonyl)-3,4-dihydro-2H-benzo[b][1,4]oxazin-2-yl)methyl)cyclobutane-1-carboxylic acid] | < 500 | < 500 | – | ** (The symbol “**” indicates a value in the range of greater than 90 to 150) | *** (The symbol “***” indicates a value in the range of greater than 150 to 200) | –

Second part, led by results:

Row | EC50 (Gal4-RORγ-LBD; 2 μM ursolic acid) [nM] | EC50 (RORγ-LBD) [nM] | EC50 (Gal4-RORγ-LBD; [1]) [nM] | Structure (SMILES) | Gal4-RORγ Assay Max Response (Gal4-RORγ-LBD; 2 μM ursolic acid) | TR-FRET Assay Max Response (RORγ-LBD) | Gal4-RORγ Assay Max Response (Gal4-RORγ-LBD; [1])
10 | < 500 | < 500 | – | O=C(O)CC[C@H]1CN(S(=O)(=O)c2cccc(C(F)(F)F)c2)c2cc(-c3cccc(Cl)c3F)c(Cl)cc2O1 [Compound 22J, (S)-3-(7-chloro-6-(3-chloro-2-fluorophenyl)-4-((3-(trifluoro-methyl)phenyl)sulfonyl)-3,4-dihydro-2H-benzo[b][1,4]oxazin-2-yl)propanoic acid] | ** (The symbol “**” indicates a value in the range of greater than 90 to 150) | *** (The symbol “***” indicates a value in the range of greater than 150 to 200) | –
11 | – | < 500 | > 10000 | O=C(O)CC[C@H]1CN(S(=O)(=O)c2cccc(C(F)(F)F)c2)c2cc(-c3ccnc(C(F)(F)F)c3)ccc2O1 [Compound 2AA, (S)-3-(4-((3-(trifluoromethyl)-phenyl)sulfonyl)-6-(2-(trifluoromethyl)pyridin-4-yl)-3,4-dihydro-2H-benzo[b][1,4]oxazin-2-yl)propanoic acid] | – | **** (The symbol “****” indicates a value greater than 200) | –
12 | – | < 500 | < 500 | C[C@](O)(CC[C@H]1CN(S(=O)(=O)c2cccc(C(F)(F)F)c2)c2cc(-c3cc(F)ccc3F)ccc2O1)C(=O)O [Compound 39, (S)-4-((S)-6-(2,5-difluorophenyl)-4-((3-(trifluoromethyl)phenyl)sulfonyl)-3,4-dihydro-2H-benzo[b][1,4]oxazin-2-yl)-2-hydroxy-2-methylbutanoic acid] | – | **** (The symbol “****” indicates a value greater than 200) | ** (The symbol “**” indicates a value in the range of greater than 90 to 150)
13 | – | < 500 | < 500 | COc1cc(-c2ccc3c(c2)N(S(=O)(=O)c2cccc(C(F)(F)F)c2)C[C@H](CCC(=O)O)O3)nc(N(C)C)c1 [Compound 4AP, (S)-3-(6-(6-(dimethylamino)-4-methoxypyridin-2-yl)-4-((3-(trifluoromethyl)phenyl)sul-fonyl)-3,4-dihydro-2H-benzo[b][1,4]oxazin-2-yl)propanoic acid] | – | **** (The symbol “****” indicates a value greater than 200) | ** (The symbol “**” indicates a value in the range of greater than 90 to 150)
14 | – | < 500 | 500 to 5000 | O=C(O)C1CCN(C(=O)NC[C@H]2CN(S(=O)(=O)c3cccc(C(F)(F)F)c3)c3cc(-c4cc(F)ccc4F)ccc3O2)CC1 [Compound 23Q, (S)-1-(((6-(2,5-difluorophenyl)-4-((3-(trifluoromethyl)-phenyl)sulfonyl)-3,4-dihydro-2H-benzo[b][1,4]oxazin-2-yl)methyl)carbamoyl)piperidine-4-carboxylic acid] | – | **** (The symbol “****” indicates a value greater than 200) | *** (The symbol “***” indicates a value in the range of greater than 150 to 200)
15 | – | < 500 | < 500 | O=C(O)CC[C@H]1CN(S(=O)(=O)c2cccc(C(F)(F)F)c2)c2cc(-c3cc(F)cc(F)c3F)ccc2O1 [Compound 4AK, (S)-3-(4-((3-(trifluoromethyl)-phenyl)sulfonyl)-6-(2,3,5-trifluorophenyl)-3,4-dihydro-2H-benzo[b][1,4]oxazin-2-yl)propanoic acid] | – | **** (The symbol “****” indicates a value greater than 200) | ** (The symbol “**” indicates a value in the range of greater than 90 to 150)
